Experimental data reported in patent US20080207522A1, “Antimicrobial Peptides” (priority 2004, published 2008).
Ends that are not written are not given here.

What was measured:
Candida albicans = system: Candida albicans
Description: (§1) Minimal inhibitory concentration (MIC) determination. The MICs of the peptides were measured using a modified broth microdilution method in Mueller Hinton (MH) medium. Wu et al., J. Biol. Chem. 274: 29-35, 1999. Briefly, the peptides were dissolved and stored in glass vials. The assay was performed in sterile 96-well polypropylene microtitre plates were used. Serial dilutions of the peptides to be assayed were performed in 0.01% acetic acid (Fisher) containing 0.2% bovine serum albumin (Boehringer Mannheim GmbH) at 10× the desired final concentration. Ten microlitres of the 10× peptides were added to each well of a 96-well polypropylene plate containing 90 μl of MH media per well. Bacteria were added to the plate from an overnight culture at 2-7×10^5 colony forming units/ml and incubated over night at 37° C. The MIC was taken as the concentration at which no growth was observed.
(§2) Strains. For the killing assay a mini-Tn5-lux mutant in Pseudomonas aeruginosa H103 was used. The strain is called H1001 and contains a fliC::luxCDABE transcriptional fusion resulting in constitutive expression of luciferase. The bacterial strains used for the antimicrobial activity assays included Escherichia coli UB1005 (F-, nalA37, metB1), a wild-type Salmonella enterica ssp. Typhimurium (S. Typhimurium), wild-type Pseudomonas aeruginosa PAO1 strain H103, Enterococcus faecalis ATCC29212, Staphylococcus aureus ATCC25923, and a clinical isolate of Staphylococcus epidermidis obtained from Dr. D. Speert (Department of Medicine, University of British Columbia). Antifungal activity was tested using a lab isolate of Candida albicans obtained from Dr. B. Dill (Department of Microbiology and Immunology, University of British Columbia).
(§3) In addition, the parent peptide Bac2A was included in these studies as a standard. The minimal inhibitory concentrations (MIC) were determined for the important medical pathogens Pseudomonas aeruginosa, Escherichia coli, Salmonella typhimurium, Staphylococcus aureus, Staphylococcus epidermidis, Enterococcus faecaelis, and the yeast Candida albicans in Mueller-Hinton media.

[1] = system: Enterococcus faecalis ATCC29212; settings: ATCC29212
Description: as §1, §2, §3

[2] = system: Pseudomonas aeruginosa PAO1 strain H103; settings: PAO1
Description: as §1, §2, §3

[3] = system: Salmonella enterica ssp. Typhimurium; settings: ssp. Typhimurium
Description: as §1, §2, §3

[4] = system: Staphylococcus aureus ATCC25923; settings: ATCC25923
Description: as §1, §2, §3

[5] = system: Staphylococcus epidermidis
Description: as §1, §2, §3

Substance | MIC C. albicans (Candida albicans) | MIC E. faecalis [1] | MIC P. aerug [2] | MIC S. Typhim. [3] | MIC S. aureus [4] | MIC S. epi. [5]
RLRRIVVIRVRR-NH2 (C-terminus assumed) [Bac433] | 31 µg/mL | 4 µg/mL | 8 µg/mL | 8 µg/mL | 8 µg/mL | 2 µg/mL
RGARIVVIRVAR-NH2 (C-terminus assumed) [Bac225] | 16 µg/mL | 31 µg/mL | 31 µg/mL | 31 µg/mL | 31 µg/mL | 16 µg/mL
RLWRIVVIRVAR-NH2 (C-terminus assumed) [Bac256] | 8 µg/mL | 2 µg/mL | 8 µg/mL | 8 µg/mL | 2 µg/mL | 0.5 µg/mL
RLARIVKIRVAR-NH2 (C-terminus assumed) [Bac323] | 31 µg/mL | 125 µg/mL | 31 µg/mL | 63 µg/mL | 125 µg/mL | 31 µg/mL
RLRRIVVIRVAR-NH2 (C-terminus assumed) [Bac252] | 16 µg/mL | 8 µg/mL | 8 µg/mL | 8 µg/mL | 8 µg/mL | 2 µg/mL
RRARIVVIRVAR-NH2 (C-terminus assumed) [Bac233] | 8 µg/mL | 16 µg/mL | 8 µg/mL | 8 µg/mL | 16 µg/mL | 2 µg/mL
KIWVIRWR-NH2 (C-terminus assumed) [Bac434] | 16 µg/mL | 16 µg/mL | 16 µg/mL | 31 µg/mL | 16 µg/mL | 4 µg/mL
GLARIVVIRVAR-NH2 (C-terminus assumed) [Bac206] | 125 µg/mL | 31 µg/mL | 125 µg/mL | 63 µg/mL | 63 µg/mL | 16 µg/mL
RLARIVVFRVAR-NH2 (C-terminus assumed) [Bac338] | >250 µg/mL | >250 µg/mL | >250 µg/mL | >250 µg/mL | >250 µg/mL | >250 µg/mL
RIWVIWRR-NH2 (C-terminus assumed) [Bac436] | 8 µg/mL | 2 µg/mL | 8 µg/mL | 8 µg/mL | 2 µg/mL | 2 µg/mL
RLARQVVIRVAR-NH2 (C-terminus assumed) [Bac289] | 8 µg/mL | 4 µg/mL | 16 µg/mL | 8 µg/mL | 8 µg/mL | 2 µg/mL
RLARIVVIRVAG-NH2 (C-terminus assumed) [Bac415] | 63 µg/mL | 31 µg/mL | 63 µg/mL | 63 µg/mL | 63 µg/mL | 31 µg/mL
RLARRVVIRVAR-NH2 (C-terminus assumed) [Bac290] | 125 µg/mL | 125 µg/mL | 63 µg/mL | 31 µg/mL | 63 µg/mL | 16 µg/mL
LARIVVIRVAR-NH2 (C-terminus assumed) [Bac102] | 83 µg/mL | 46 µg/mL | 83 µg/mL | >83 µg/mL | 83 µg/mL | 11 µg/mL
RWWKIWVIRWWR-NH2 (C-terminus assumed) [Bac432] | 31 µg/mL | 8 µg/mL | 31 µg/mL | 16 µg/mL | 8 µg/mL | 1 µg/mL
RRWRIVVIRVRR-NH2 (C-terminus assumed) [Bac430] | 4 µg/mL | 4 µg/mL | 2 µg/mL | 4 µg/mL | 2 µg/mL | 0.2 µg/mL
RLARIVVIRV-NH2 (C-terminus assumed) [Bac103] | 23 µg/mL | 23 µg/mL | 46 µg/mL | 46 µg/mL | 46 µg/mL | 11 µg/mL
RLARIVVIRVA-NH2 (C-terminus assumed) [Bac101] | 63 µg/mL | 31 µg/mL | 63 µg/mL | 31 µg/mL | 63 µg/mL | 16 µg/mL
RRWVIWRR-NH2 (C-terminus assumed) [Bac437] | 63 µg/mL | 32 µg/mL | 250 µg/mL | 31 µg/mL | 16 µg/mL | 8 µg/mL
RIWVIRWR-NH2 (C-terminus assumed) [Bac435] | 16 µg/mL | 8 µg/mL | 16 µg/mL | 16 µg/mL | 4 µg/mL | 4 µg/mL
